Measurements reported in patent publication US20240279202A1 (NURIX THERAPEUTICS, INC., priority 2021, published 2024).
Structures can show the parent of a compound that is named as a salt.

Assay: Mouse PK analysis (blood/plasma concentration after oral administration)
Assay type: in vivo
Details: mice, oral; for AUC(0-t) / Cmax / Tmax / concentration at 1 h / concentration at 2 h / concentration at 6 h: mouse, plasma; for detected in plasma through (FIG. 4B): plasma LC/MS/MS; for concentration at 1 h / concentration at 2 h / concentration at 6 h: 90 mg/kg; for concentration at 1 h: read-out: Cal. Conc. Total (μM) 1 h; for concentration at 2 h: read-out: Cal. Conc. Total (μM) 2 h; for concentration at 6 h: read-out: Cal. Conc. Total (μM) 6 h
Summary of the method: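 Mice were dosed by oral gavage at 90 mg/kg with blood sampled at 1, 2 and 6 h; a second study used oral dosing with plasma taken at 6 or 24 h. Plasma levels were measured by LC/MS/MS (acetonitrile precipitation, internal-standard curve, positive ESI MRM), and Cmax, Tmax and AUClast were derived by noncompartmental analysis.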

Q: Which results are given for `C[C@@H](C(=O)N(C)c1ccc2cc(-c3n[nH]c4c3CCC(C)(C)C4)[nH]c2c1)N1CCN(C[C@@H]2CCN(c3ccc4c(c3)n(C)c(=O)n4C3CCC(=O)NC3=O)C2)CC1` (stereo partly drawn) [Compound 4, (2S)—N-(2-(6,6-dimethyl-4,5,6,7-tetrahydro-1H-indazol-3-yl)-1H-indol-6-yl)-2-(4-(((3S)-1-(1-(2,6-dioxopiperidin-3-yl)-3-methyl-2-oxo-2,3-dihydro-1H-benzo[d]imidazol-5-yl)pyrrolidin-3-yl)methyl)piperazin-1-yl)-N-methylpropanamide]?
A: AUC(0-t): 0.54 µM·h; Cmax: 127 nM; Tmax: 2 h

Q: With `CN(C(=O)CCC1CCN(c2ccc(C(=O)NC3CCC(=O)NC3=O)nc2)C1)c1ccc2cc(-c3n[nH]c4c3C[C@@H]3C(F)(F)[C@]3(C)C4)[nH]c2c1` (stereo partly drawn) [Compound 69, 5-(3-(3-((2-((4aS,5aR)-5,5-difluoro-5a-methyl-1,4,4a,5,5a,6-hexahydrocyclopropa[f]indazol-3-yl)-1H-indol-6-yl)(methyl)amino)-3-oxopropyl)pyrrolidin-1-yl)-N-(2,6-dioxopiperidin-3-yl)picolinamide] as the compound, how does the AUC(0-t) read?
A: The AUC(0-t) was 1.26 µM·h.

Q: And the Cmax?
A: The Cmax was 283 nM.

Q: What about the Tmax of the same compound?
A: Its Tmax is 3.5 h.

Q: With `Cn1c(=O)n([C@@H]2CCC(=O)NC2=O)c2cccc(N3CCC(CN4CCN(C(=O)c5ccc6cc(-c7n[nH]c8c7CCC(C)(C)C8)[nH]c6c5)CC4)CC3)c21` [Compound 48, (R)-3-(4-(4-((4-(2-(6,6-dimethyl-4,5,6,7-tetrahydro-1H-indazol-3-yl)-1H-indole-6-carbonyl)piperazin-1-yl)methyl)piperidin-1-yl)-3-methyl-2-oxo-2,3-dihydro-1H-benzo[d]imidazol-1-yl)piperidine-2,6-dione] as the compound, how does the AUC(0-t) read?
A: Its AUC(0-t) is 8.42 µM·h.

Q: What about the Cmax of the same compound?
A: Its Cmax is 2440 nM.

Q: What about the Tmax of the same compound?
A: Its Tmax is 6 h.

Q: Which AUC(0-t) does the source give for `CN(c1ccc2cc(-c3n[nH]c4c3C[C@@H]3C(F)(F)[C@]3(C)C4)[nH]c2c1)C(=O)[C@H]1C[C@]2(CCN(c3ccc4c(c3)C(=O)N([C@H]3CCC(=O)NC3=O)C4=O)C2)C1` (racemic) [Compound 71b, (2s,4s)-N-[2-[(4aS,5aR)-5,5-difluoro-5a-methyl-1H,4H,4aH,6H-cyclopropa[f]indazol-3-yl]-1H-indol-6-yl]-6-[2-[(3RS)-2,6-dioxopiperidin-3-yl]-1,3-dioxoisoindol-5-yl]-N-methyl-6-azaspiro[3.4]octane-2-carboxamide] here?
A: Its AUC(0-t) is 0.78 µM·h.

Q: And the Cmax?
A: The Cmax was 223 nM.

Q: What about the Tmax of the same compound?
A: Its Tmax is 1.5 h.

Q: For `C[C@@H](C(=O)N(C)c1ccc2cc(-c3n[nH]c4c3C[C@@H]3C(F)(F)[C@]3(C)C4)[nH]c2c1)N1CCN(CC2CCN(c3ccc(C4CCC(=O)NC4=O)cn3)CC2)CC1` (stereo partly drawn) [Compound 17, (2S)—N-(2-((4aS,5aR)-5,5-difluoro-5a-methyl-1,4,4a,5,5a,6-hexahydrocyclopropa[f]indazol-3-yl)-1H-indol-6-yl)-2-(4-((1-(5-(2,6-dioxopiperidin-3-yl)pyridin-2-yl)piperidin-4-yl)methyl)piperazin-1-yl)-N-methylpropanamide], which “detected in plasma through (FIG. 4B)” value is on record?
A: The value was 24 h.

Q: Which AUC(0-t) does the source give for `Cn1c(=O)n([C@H]2CCC(=O)NC2=O)c2cccc(N3CCC(CN4CCN(C(=O)c5ccc6cc(-c7n[nH]c8c7CCC(C)(C)C8)[nH]c6c5)CC4)CC3)c21` [Compound 46, (S)-3-(4-(4-((4-(2-(6,6-dimethyl-4,5,6,7-tetrahydro-1H-indazol-3-yl)-1H-indole-6-carbonyl)piperazin-1-yl)methyl)piperidin-1-yl)-3-methyl-2-oxo-2,3-dihydro-1H-benzo[d]imidazol-1-yl)piperidine-2,6-dione] here?
A: Its AUC(0-t) is 9.38 µM·h.

Q: What about the Cmax of the same compound?
A: The Cmax was 2130 nM.

Q: What about the Tmax of the same compound?
A: The Tmax was 4 h.

Q: With `Cn1c(=O)n(C2CCC(=O)NC2=O)c2cccc(N3CCC(CN4CCC5(CC4)CCN(c4ccc6cc(-c7n[nH]c8c7CCC(C)(C)C8)[nH]c6c4)C5=O)CC3)c21` (centres unmarked) [Compound 13, 3-(4-(4-((2-(2-(6,6-dimethyl-4,5,6,7-tetrahydro-1H-indazol-3-yl)-1H-indol-6-yl)-1-oxo-2,8-diazaspiro[4.5]decan-8-yl)methyl)piperidin-1-yl)-3-methyl-2-oxo-2,3-dihydro-1H-benzo[d]imidazol-1-yl)piperidine-2,6-dione] as the compound, how does the AUC(0-t) read?
A: Its AUC(0-t) is 0.927 µM·h.

Q: What about the Cmax of the same compound?
A: Its Cmax is 251 nM.

Q: And the Tmax?
A: The Tmax was 4 h.

Q: Which “detected in plasma through (FIG. 4B)” value does the source give for `Cn1c(=O)n(C2CCC(=O)NC2=O)c2cccc(N3CCC(CN4CCC5(CC4)CCN(c4ccc6cc(-c7n[nH]c8c7C[C@@H]7C(F)(F)[C@]7(C)C8)[nH]c6c4)C5=O)CC3)c21` (stereo partly drawn) [Compound 16, 3-(4-(4-((2-(2-((4aS,5aR)-5,5-difluoro-5a-methyl-1,4,4a,5,5a,6-hexahydrocyclopropa[f]indazol-3-yl)-1H-indol-6-yl)-1-oxo-2,8-diazaspiro[4.5]decan-8-yl)methyl)piperidin-1-yl)-3-methyl-2-oxo-2,3-dihydro-1H-benzo[d]imidazol-1-yl)piperidine-2,6-dione] here?
A: The value was 6 h.

Q: What about the AUC(0-t) of the same compound?
A: The AUC(0-t) was 1.53 µM·h.

Q: And the Cmax?
A: Its Cmax is 585 nM.

Q: And the Tmax?
A: The Tmax was 6 h.

Q: Which AUC(0-t) does the source give for `CN(C(=O)CN1CCC2(CC1)CCN(c1ccc3c(c1)C(=O)N(C1CCC(=O)NC1=O)C3=O)C2)c1ccc2cc(-c3n[nH]c4c3C[C@@H]3C(F)(F)[C@]3(C)C4)[nH]c2c1` (stereo partly drawn) [Compound 72, N-(2-((4aS,5aR)-5,5-difluoro-5a-methyl-1,4,4a,5,5a,6-hexahydrocyclopropa[f]indazol-3-yl)-1H-indol-6-yl)-2-(2-(2-(2,6-dioxopiperidin-3-yl)-1,3-dioxoisoindolin-5-yl)-2,8-diazaspiro[4.5]decan-8-yl)-N-methylacetamide] here?
A: Its AUC(0-t) is 0.02 µM·h.

Q: What about the Cmax of the same compound?
A: The Cmax was 9 nM.

Q: What about the Tmax of the same compound?
A: Its Tmax is 4 h.

Q: What does the source list for `CN(C(=O)CCN1CCN(c2ccc3c(c2)C(=O)N(C2CCC(=O)NC2=O)C3=O)CC1)c1ccc2cc(-c3n[nH]c4c3CCC(C)(C)C4)[nH]c2c1` (centres unmarked) [Compound 2, N-(2-(6,6-dimethyl-4,5,6,7-tetrahydro-1H-indazol-3-yl)-1H-indol-6-yl)-3-(4-(2-(2,6-dioxopiperidin-3-yl)-1,3-dioxoisoindolin-5-yl)piperazin-1-yl)-N-methylpropanamide]?
A: concentration at 1 h: 0.041 µM; concentration at 2 h: 0.039 µM; concentration at 6 h: 0.059 µM

Q: With `C[C@@]12Cc3[nH]nc(C(=O)Nc4cnn(CC5CN(C(=O)C6CN(c7ccc8c(c7)C(=O)N(C7CCC(=O)NC7=O)C8=O)C6)C5)c4)c3C[C@@H]1C2(F)F` (stereo partly drawn) [Compound 43, (4aS,5aR)-N-(1-((1-(1-(2-(2,6-dioxopiperidin-3-yl)-1,3-dioxoisoindolin-5-yl)azetidine-3-carbonyl)azetidin-3-yl)methyl)-1H-pyrazol-4-yl)-5,5-difluoro-5a-methyl-1,4,4a,5,5a,6-hexahydrocyclopropa[f]indazole-3-carboxamide] as the compound, how does the AUC(0-t) read?
A: The AUC(0-t) was 2.34 µM·h.

Q: What about the Cmax of the same compound?
A: The Cmax was 720 nM.

Q: What about the Tmax of the same compound?
A: The Tmax was 6 h.

Q: With `CC1(C)CCc2c(-c3cc4ccc(N5CCC6(CCN(CC7CCN(c8ccc(C9CCC(=O)NC9=O)cn8)CC7)CC6)C5=O)cc4[nH]3)n[nH]c2C1` (centres unmarked) [Compound 22, 3-(6-(4-((2-(2-(6,6-dimethyl-4,5,6,7-tetrahydro-1H-indazol-3-yl)-1H-indol-6-yl)-1-oxo-2,8-diazaspiro[4.5]decan-8-yl)methyl)piperidin-1-yl)pyridin-3-yl)piperidine-2,6-dione] as the compound, how does the AUC(0-t) read?
A: The AUC(0-t) was 7.07 µM·h.

Q: And the Cmax?
A: The Cmax was 2430 nM.

Q: And the Tmax?
A: Its Tmax is 1 h.

Q: What does the source list for `C[C@@H](C(=O)N(C)c1ccc2cc(-c3n[nH]c4c3C[C@@H]3C(F)(F)[C@]3(C)C4)[nH]c2c1)N1CCN(CC2CCN(c3cccc4c3n(C)c(=O)n4C3CCC(=O)NC3=O)CC2)CC1` (stereo partly drawn) [Compound 65, (2S)—N-(2-((4aS,5aR)-5,5-difluoro-5a-methyl-1,4,4a,5,5a,6-hexahydrocyclopropa[f]indazol-3-yl)-1H-indol-6-yl)-2-(4-((1-(1-(2,6-dioxopiperidin-3-yl)-3-methyl-2-oxo-2,3-dihydro-1H-benzo[d]imidazol-4-yl)piperidin-4-yl)methyl)piperazin-1-yl)-N-methylpropanamide]?
A: AUC(0-t): 1.38 µM·h; Cmax: 405 nM; Tmax: 6 h

Q: Which concentration at 1 h does the source give for `CN(C(=O)CCC1CCN(c2ccc3c(c2)C(=O)N(C2CCC(=O)NC2=O)C3=O)C1)c1ccc2cc(-c3n[nH]c4c3CCC(C)(C)C4)[nH]c2c1` (centres unmarked) [Compound 1, N-(2-(6,6-dimethyl-4,5,6,7-tetrahydro-1H-indazol-3-yl)-1H-indol-6-yl)-3-(1-(2-(2,6-dioxopiperidin-3-yl)-1,3-dioxoisoindolin-5-yl)pyrrolidin-3-yl)-N-methylpropanamide] here?
A: The concentration at 1 h was 1.6 µM.

Q: And the concentration at 2 h?
A: The concentration at 2 h was 1.7 µM.

Q: And the concentration at 6 h?
A: The concentration at 6 h was 0.7 µM.

Q: For `C[C@@]12Cc3[nH]nc(-c4cc5ccc(N6CCC7(CCN(Cc8ccc9c(c8)C(=O)N(C8CCC(=O)NC8=O)C9=O)CC7)C6=O)cc5[nH]4)c3C[C@@H]1C2(F)F` (stereo partly drawn) [Compound 15, 5-((2-(2-((4aS,5aR)-5,5-difluoro-5a-methyl-1,4,4a,5,5a,6-hexahydrocyclopropa[f]indazol-3-yl)-1H-indol-6-yl)-1-oxo-2,8-diazaspiro[4.5]decan-8-yl)methyl)-2-(2,6-dioxopiperidin-3-yl)isoindoline-1,3-dione hydrochloride], which AUC(0-t) is on record?
A: The AUC(0-t) was 3.14 µM·h.

Q: And the Cmax?
A: Its Cmax is 743 nM.

Q: What about the Tmax of the same compound?
A: Its Tmax is 4 h.

Q: Which concentration at 1 h does the source give for `C[C@@H](C(=O)N(C)c1ccc2cc(-c3n[nH]c4c3CCC(C)(C)C4)[nH]c2c1)N1CCN(CC2CCN(c3ccc(C(=O)NC4CCC(=O)NC4=O)nc3)CC2)CC1` (stereo partly drawn) [Compound 7, 5-(4-((4-((S)-1-((2-(6,6-dimethyl-4,5,6,7-tetrahydro-1H-indazol-3-yl)-1H-indol-6-yl)(methyl)amino)-1-oxopropan-2-yl)piperazin-1-yl)methyl)piperidin-1-yl)-N-(2,6-dioxopiperidin-3-yl)picolinamide] here?
A: Its concentration at 1 h is 0.2 µM.

Q: What about the concentration at 2 h of the same compound?
A: Its concentration at 2 h is 0.29 µM.

Q: What about the concentration at 6 h of the same compound?
A: The concentration at 6 h was 0.45 µM.
